# Source: patent US20260355199A1, “COMPOSITIONS AND METHODS FOR TREATING OR PREVENTING NONALCOHOLIC STEATOHEPATITIS (NASH), ANOREXIA, DEPRESSION, ENDOMETRIOSIS, AND OTHER DISEASES OR DISORDERS” (priority 2022, published 2026)
# Experiments:
# [1] = tested on: TET2; test: TET2 protein stability (cycloheximide) in MDMs; assay type: cell-based, human; conditions: 10 μM, with cycloheximide
# Description: For TET protein stability assay of MDMs, cells in 24-well plates were incubated with vehicle or Bobcat339 at a final concentration of 10 μM for 3 h, followed by addition of cycloheximide (CHX, Cell Signaling, 2112) at a final concentration of 50 μg/mL. Proteins were harvested at 0, 2, 4, and 6 hours after addition of CHX.
# [2] = tested on: Agrp promoter; test: hMeDIP-qPCR (5hmC) at the Agrp promoter in mouse ARC; assay type: in vivo; conditions: leptin- vs. saline-treated
# Description: To assess leptin effects on suppression of hunger-induced appetite, female Cas9+ mice injected with AAV or AAV-sgTet3 bilaterally into the ARC were fasted overnight for 22 h. On the second day, mouse leptin (L3772-1MG, Sigma Aldrich) was administrated at 5 mg/kg intraperitoneally at 10:00 and pre-weighed food was placed in the cage and monitored for the following 24 h. For ChIP studies, Cas9+ mice injected with AAV or AAVsgTet3 bilaterally into the ARC were fasted overnight for 22 h. On the second day, saline or leptin (5 mg/kg) was administrated intraperitoneally at 10:00. Two hours later, ARCs were isolated for ChIP-qPCR analysis. To examine leptin-induced protein-protein interactions, Cas9+ mice were fasted overnight for 22 h. […]
# The experiments were carried out using the EpiQuik hMeDIP Kit (P-1038-48, Epigentek) according to the manufacturer's instructions. […] Sheared DNA fragments (ranged in size from 200-600 bps as assessed by agarose gel electrophoresis) were immunoprecipitated using the 5hmC rabbit polyclonal antibody from the kit. qPCR was performed in a 25 μl reaction containing 2.5 μl of the eluted DNA using iTAC SYBGreen in a Bio-Rad iCycler. The relative enrichments (after normalization against control IgG) of the indicated DNA regions were calculated using the Percent Input Method according to the manufacturer's instructions.
# [3] = tested on: NPY and VGAT; test: NPY and VGAT expression in leptin-treated GT1-7 cells; assay type: cell-based, mouse; conditions: TET3-dependent manner
# Description: Mouse GT1-7 hypothalamic neuronal cell line (Sigma-Aldrich, SCC116), human SH-SY5Y neuronal blastoma cell line (ATCC, CRL-2266), and embryonic mouse hypothalamus cell line N11 (mHypoE-N11) (Cedarlane, CLU107) were purchased and cultured according to the manufacturers' instructions. For siRNA transfection in a 24-well plate scale, cells were seeded at a density of 2×10^5 cells/well the day before transfection. To prepare siRNA transfection solution for each well of cells, 5 pmol of NT siRNA (non-targeting control siRNA, AM4636, Ambion), Tet3 siRNA (siRNA specifically targeting mouse Tet3, 4390815/s101483, Ambion), or TET3 siRNA (siRNA specifically targeting human TET3, 4392420/s47238, Ambion) (Cao et al., 2019, Oncogene, 38:5356-5366; Xu et al., 2020, Cell Rep., 30:1310-1318) were mixed with 25 μl of OPTI-MEM (Gibco, 31985-070) by gentle pipetting (Cao, T. et al., 2019, Oncogene, 38:5356-5366; Xu, Y. et al., 2020, Cell Reports, 30:1310-1318 e5). In parallel, 1.5 μl of Lipofectamine RNAiMAX (Invitrogen, 13778-150) was mixed with 25 μl of OPTI-MEM by gentle pipetting. Following 5 min of incubation at room temperature, the resulting 50 μl of transfection solution was added to one well of cells containing 1 ml culture media. […]
Compound,TET2 protein stability [1],5hmC in the Agrp promoter [2],NPY and VGAT expression [3]
"Nc1nc(=O)n(-c2cccc(-c3ccccc3)c2)cc1Cl [Bobcat339, 4-Amino-1-[1,1′-biphenyl]-3-yl-5-chloro-2(1H)-pyrimidinone]",destabilized both proteins,–,–
"leptin: adipose hormone; mouse leptin L3772-1MG or human leptin L4146-1MG, Sigma Aldrich",–,an increase in 5hmC in the Agrp promoter,negatively affected the expression of NPY and VGAT
